Data from patent US20200239530A1, “COMPOUNDS AND METHODS OF MODULATING PROTEIN DEGRADATION” (Vividion Therapeutics, Inc., priority 2017, published 2020).
Where two headings read alike, the source gives them in different places. Values belong to the compound of their own block, whether it stands above or below them.

Legend:
Assay in all cases: Cysteine liganding, probe competition
Format in all cases: binding
UniProt O15151 = biological target: T1, UniProt O15151 (Homo sapiens, UniProt O15151); conditions: for inhibition at 500 µM: read-out: percent inhibition
T1 construct: Cells were resuspended in cold PBS on ice and sonicated with a probe sonicator to achieve lysis; endogenous in cells
T1 sequence (O15151 1-490): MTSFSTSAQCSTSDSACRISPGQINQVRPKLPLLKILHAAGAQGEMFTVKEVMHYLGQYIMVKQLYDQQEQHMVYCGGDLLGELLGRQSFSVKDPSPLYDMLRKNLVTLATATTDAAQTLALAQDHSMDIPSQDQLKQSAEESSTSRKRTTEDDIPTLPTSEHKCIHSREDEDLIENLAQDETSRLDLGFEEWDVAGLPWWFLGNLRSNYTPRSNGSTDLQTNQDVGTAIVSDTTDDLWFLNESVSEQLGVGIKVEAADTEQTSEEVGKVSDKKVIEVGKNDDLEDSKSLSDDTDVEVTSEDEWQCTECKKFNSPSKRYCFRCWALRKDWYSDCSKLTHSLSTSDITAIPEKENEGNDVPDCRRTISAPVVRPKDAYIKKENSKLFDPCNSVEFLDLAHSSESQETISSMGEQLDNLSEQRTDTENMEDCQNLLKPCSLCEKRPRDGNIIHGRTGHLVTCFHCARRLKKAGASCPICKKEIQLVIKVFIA
Source text: (§1) The following 96-well sample prep protocol was used for sample preparation.

UniProt O43164 = biological target: T2, UniProt O43164 (Homo sapiens, UniProt O43164)
T2 construct: 200 μL of lysate containing 5 mg/ml proteome was treated with 2 μL of 100× compound stock; endogenous in cells
Source text: as §1

UniProt O96028 = biological target: T3, UniProt O96028 (Homo sapiens, UniProt O96028); conditions: 500 uM
T3 construct: Cells were resuspended in cold PBS on ice and sonicated with a probe sonicator to achieve lysis; endogenous in cells
Source text: as §1

UniProt P36406 = biological target: T4, UniProt P36406 (Homo sapiens, UniProt P36406)
T4 construct: 200 μL of lysate containing 5 mg/ml proteome was treated with 2 μL of 100× compound stock; endogenous in cells
Source text: as §1

UniProt Q12899 = biological target: T5, UniProt Q12899 (Homo sapiens, UniProt Q12899)
T5 construct: 200 μL of lysate containing 5 mg/ml proteome was treated with 2 μL of 100× compound stock; endogenous in cells
Source text: as §1

UniProt Q13233 = biological target: T6, UniProt Q13233 (Homo sapiens, UniProt Q13233)
T6 construct: Cells were resuspended in cold PBS on ice and sonicated with a probe sonicator to achieve lysis; endogenous in cells
Source text: as §1

UniProt Q13829 = biological target: T7, UniProt Q13829 (Homo sapiens, UniProt Q13829)
T7 construct: 200 μL of lysate containing 5 mg/ml proteome was treated with 2 μL of 100× compound stock; endogenous in cells
T7 sequence (Q13829 1-316): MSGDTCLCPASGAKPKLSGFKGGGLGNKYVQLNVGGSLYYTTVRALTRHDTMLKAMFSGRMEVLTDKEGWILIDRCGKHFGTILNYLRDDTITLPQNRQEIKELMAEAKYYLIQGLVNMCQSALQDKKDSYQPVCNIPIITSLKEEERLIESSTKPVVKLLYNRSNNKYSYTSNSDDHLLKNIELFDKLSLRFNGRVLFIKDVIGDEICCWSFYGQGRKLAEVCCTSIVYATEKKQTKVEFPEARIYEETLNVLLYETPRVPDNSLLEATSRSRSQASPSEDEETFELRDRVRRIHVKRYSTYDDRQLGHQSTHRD
Source text: as §1

UniProt Q86SE9 = biological target: T8, UniProt Q86SE9 (Homo sapiens, UniProt Q86SE9)
T8 construct: 200 μL of lysate containing 5 mg/ml proteome was treated with 2 μL of 100× compound stock; endogenous in cells
Source text: as §1

UniProt Q96EX2 = biological target: T9, UniProt Q96EX2 (Homo sapiens, UniProt Q96EX2); conditions: for inhibition at 100 µM / inhibition at 500 µM: read-out: percent_inhibition
T9 construct: 200 μL of lysate containing 5 mg/ml proteome was treated with 2 μL of 100× compound stock; endogenous in cells
T9 sequence (Q96EX2 1-444): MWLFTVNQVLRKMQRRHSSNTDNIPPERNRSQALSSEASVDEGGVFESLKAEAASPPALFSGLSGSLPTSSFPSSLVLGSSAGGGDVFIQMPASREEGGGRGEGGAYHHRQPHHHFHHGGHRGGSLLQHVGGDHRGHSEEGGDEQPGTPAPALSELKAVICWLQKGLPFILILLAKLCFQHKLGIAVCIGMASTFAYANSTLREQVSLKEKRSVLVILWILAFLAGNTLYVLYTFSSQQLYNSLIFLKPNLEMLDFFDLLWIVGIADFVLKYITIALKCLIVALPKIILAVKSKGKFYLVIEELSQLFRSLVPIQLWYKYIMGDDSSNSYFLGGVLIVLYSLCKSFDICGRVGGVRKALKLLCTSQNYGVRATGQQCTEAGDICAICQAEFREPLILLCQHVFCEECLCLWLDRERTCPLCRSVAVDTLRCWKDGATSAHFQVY
Source text: as §1

UniProt Q96JY6 = biological target: T10, UniProt Q96JY6 (Homo sapiens, UniProt Q96JY6)
T10 construct: 200 μL of lysate containing 5 mg/ml proteome was treated with 2 μL of 100× compound stock; endogenous in cells
T10 sequence (Q96JY6 1-352): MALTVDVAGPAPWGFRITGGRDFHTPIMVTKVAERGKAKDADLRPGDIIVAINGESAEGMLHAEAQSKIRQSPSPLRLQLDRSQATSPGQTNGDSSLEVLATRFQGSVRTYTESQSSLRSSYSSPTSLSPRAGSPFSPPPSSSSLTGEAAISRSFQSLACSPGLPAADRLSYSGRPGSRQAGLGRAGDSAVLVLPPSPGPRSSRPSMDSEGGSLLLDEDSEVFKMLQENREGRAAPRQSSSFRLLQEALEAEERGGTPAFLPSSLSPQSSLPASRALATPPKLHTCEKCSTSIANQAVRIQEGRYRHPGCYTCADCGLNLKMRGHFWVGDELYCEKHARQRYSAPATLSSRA
Source text: as §1

UniProt Q9UJ41 = biological target: T11, UniProt Q9UJ41 (Homo sapiens, UniProt Q9UJ41)
T11 construct: 200 μL of lysate containing 5 mg/ml proteome was treated with 2 μL of 100× compound stock; endogenous in cells
Source text: as §1

UniProt O43791 = biological target: T12, UniProt O43791 (Homo sapiens, UniProt O43791)
T12 construct: 200 μL of lysate containing 5 mg/ml proteome was treated with 2 μL of 100× compound stock; endogenous in cells
Source text: as §1

UniProt Q86UD3 = biological target: T13, UniProt Q86UD3 (Homo sapiens, UniProt Q86UD3)
T13 construct: Cells were resuspended in cold PBS on ice and sonicated with a probe sonicator to achieve lysis; endogenous in cells
T13 sequence (Q86UD3 1-253): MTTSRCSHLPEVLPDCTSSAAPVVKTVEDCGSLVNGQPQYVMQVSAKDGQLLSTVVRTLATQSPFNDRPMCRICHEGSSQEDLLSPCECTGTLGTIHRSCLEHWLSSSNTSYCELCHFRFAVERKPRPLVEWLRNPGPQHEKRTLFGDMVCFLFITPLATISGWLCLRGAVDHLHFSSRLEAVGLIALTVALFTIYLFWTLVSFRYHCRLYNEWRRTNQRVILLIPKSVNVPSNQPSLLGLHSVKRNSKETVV
Source text: as §1

[1] = read-out: KB05_100 uM_percent_inhibition
[2] = 100 uM, read-out: percent_inhibition
[3] = 500 uM, read-out: KB05_500 uM_percent_inhibition

T8 sequence (Q86SE9 whole entry, change not shown): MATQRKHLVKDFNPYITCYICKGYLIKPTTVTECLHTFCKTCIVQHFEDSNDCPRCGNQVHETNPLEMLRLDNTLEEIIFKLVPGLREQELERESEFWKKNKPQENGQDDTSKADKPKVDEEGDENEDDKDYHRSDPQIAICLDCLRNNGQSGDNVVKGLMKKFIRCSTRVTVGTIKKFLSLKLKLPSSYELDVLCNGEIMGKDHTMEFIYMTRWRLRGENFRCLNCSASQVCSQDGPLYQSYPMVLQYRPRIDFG
T4 sequence (P36406 whole entry, change not shown): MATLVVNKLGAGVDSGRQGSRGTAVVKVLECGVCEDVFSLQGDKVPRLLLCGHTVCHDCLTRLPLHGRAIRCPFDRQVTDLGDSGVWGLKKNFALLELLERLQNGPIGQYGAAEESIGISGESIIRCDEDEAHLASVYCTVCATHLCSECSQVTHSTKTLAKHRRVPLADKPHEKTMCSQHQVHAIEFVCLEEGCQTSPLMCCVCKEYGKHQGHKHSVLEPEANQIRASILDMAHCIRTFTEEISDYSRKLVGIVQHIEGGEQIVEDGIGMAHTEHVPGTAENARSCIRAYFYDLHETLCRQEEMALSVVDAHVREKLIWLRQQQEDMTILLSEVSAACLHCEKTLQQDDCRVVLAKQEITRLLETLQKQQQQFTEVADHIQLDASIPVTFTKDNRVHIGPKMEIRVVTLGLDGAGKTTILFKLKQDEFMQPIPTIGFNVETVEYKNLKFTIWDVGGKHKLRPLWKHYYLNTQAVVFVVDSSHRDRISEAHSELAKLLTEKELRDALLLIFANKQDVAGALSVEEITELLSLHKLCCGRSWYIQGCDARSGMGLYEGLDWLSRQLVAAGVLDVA
T12 sequence (O43791 whole entry, change not shown): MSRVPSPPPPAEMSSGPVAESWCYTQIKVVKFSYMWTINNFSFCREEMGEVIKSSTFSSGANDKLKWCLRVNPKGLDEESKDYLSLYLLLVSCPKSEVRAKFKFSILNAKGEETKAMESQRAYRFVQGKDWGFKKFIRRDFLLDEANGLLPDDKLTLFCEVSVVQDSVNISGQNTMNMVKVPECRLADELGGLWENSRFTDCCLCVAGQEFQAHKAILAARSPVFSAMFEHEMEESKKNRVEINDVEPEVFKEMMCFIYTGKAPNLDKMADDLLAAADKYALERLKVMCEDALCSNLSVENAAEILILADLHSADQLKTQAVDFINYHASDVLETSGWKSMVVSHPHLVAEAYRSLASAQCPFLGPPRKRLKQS
T11 sequence (Q9UJ41 whole entry, change not shown): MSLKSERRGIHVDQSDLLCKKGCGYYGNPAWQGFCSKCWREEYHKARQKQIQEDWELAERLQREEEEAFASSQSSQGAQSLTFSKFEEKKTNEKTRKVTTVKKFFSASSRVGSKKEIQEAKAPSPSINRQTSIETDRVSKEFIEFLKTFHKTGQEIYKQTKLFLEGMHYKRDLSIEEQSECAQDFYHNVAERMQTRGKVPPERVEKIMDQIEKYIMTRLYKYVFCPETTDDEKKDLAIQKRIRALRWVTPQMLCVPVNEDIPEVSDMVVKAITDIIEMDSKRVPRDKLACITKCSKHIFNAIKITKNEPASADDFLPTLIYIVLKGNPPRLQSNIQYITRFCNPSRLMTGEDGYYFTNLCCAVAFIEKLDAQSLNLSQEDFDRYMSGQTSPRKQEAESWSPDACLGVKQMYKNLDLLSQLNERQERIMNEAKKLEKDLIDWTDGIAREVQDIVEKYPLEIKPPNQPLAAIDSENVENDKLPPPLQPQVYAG
T3 sequence (O96028 whole entry, change not shown): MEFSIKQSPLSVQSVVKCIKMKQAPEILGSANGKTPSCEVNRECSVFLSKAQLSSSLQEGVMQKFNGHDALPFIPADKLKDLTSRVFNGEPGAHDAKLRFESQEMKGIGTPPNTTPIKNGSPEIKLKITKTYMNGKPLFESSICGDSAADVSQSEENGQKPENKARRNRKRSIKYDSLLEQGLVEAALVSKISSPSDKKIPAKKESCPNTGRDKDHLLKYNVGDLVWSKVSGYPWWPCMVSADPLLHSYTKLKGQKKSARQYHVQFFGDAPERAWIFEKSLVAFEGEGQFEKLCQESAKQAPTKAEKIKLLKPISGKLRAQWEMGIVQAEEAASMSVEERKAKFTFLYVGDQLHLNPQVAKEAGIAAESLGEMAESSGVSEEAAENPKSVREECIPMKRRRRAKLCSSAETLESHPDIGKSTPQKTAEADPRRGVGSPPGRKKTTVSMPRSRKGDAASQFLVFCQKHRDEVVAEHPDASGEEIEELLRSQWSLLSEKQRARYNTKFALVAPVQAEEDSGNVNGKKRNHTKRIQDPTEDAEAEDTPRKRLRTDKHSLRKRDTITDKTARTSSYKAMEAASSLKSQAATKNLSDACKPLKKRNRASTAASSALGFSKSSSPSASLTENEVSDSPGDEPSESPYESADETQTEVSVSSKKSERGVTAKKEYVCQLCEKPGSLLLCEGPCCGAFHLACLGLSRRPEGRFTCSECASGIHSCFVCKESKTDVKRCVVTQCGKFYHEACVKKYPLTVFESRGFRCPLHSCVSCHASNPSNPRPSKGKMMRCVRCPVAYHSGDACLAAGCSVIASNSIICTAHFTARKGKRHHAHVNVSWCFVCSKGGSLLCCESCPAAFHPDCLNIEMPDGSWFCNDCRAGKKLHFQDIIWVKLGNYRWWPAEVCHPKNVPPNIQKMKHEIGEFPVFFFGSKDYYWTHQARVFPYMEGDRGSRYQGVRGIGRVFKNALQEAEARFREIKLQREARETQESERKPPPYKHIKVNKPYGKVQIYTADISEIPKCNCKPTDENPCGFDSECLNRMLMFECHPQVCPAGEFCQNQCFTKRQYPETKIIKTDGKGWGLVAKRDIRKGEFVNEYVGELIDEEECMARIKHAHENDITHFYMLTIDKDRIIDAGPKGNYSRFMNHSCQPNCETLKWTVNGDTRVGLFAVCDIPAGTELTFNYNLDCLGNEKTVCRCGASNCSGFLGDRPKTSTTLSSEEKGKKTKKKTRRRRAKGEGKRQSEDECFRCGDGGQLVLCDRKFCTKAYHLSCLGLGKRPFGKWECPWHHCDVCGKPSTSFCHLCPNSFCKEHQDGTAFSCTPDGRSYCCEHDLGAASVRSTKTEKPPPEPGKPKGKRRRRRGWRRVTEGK
T6 sequence (Q13233 whole entry, change not shown): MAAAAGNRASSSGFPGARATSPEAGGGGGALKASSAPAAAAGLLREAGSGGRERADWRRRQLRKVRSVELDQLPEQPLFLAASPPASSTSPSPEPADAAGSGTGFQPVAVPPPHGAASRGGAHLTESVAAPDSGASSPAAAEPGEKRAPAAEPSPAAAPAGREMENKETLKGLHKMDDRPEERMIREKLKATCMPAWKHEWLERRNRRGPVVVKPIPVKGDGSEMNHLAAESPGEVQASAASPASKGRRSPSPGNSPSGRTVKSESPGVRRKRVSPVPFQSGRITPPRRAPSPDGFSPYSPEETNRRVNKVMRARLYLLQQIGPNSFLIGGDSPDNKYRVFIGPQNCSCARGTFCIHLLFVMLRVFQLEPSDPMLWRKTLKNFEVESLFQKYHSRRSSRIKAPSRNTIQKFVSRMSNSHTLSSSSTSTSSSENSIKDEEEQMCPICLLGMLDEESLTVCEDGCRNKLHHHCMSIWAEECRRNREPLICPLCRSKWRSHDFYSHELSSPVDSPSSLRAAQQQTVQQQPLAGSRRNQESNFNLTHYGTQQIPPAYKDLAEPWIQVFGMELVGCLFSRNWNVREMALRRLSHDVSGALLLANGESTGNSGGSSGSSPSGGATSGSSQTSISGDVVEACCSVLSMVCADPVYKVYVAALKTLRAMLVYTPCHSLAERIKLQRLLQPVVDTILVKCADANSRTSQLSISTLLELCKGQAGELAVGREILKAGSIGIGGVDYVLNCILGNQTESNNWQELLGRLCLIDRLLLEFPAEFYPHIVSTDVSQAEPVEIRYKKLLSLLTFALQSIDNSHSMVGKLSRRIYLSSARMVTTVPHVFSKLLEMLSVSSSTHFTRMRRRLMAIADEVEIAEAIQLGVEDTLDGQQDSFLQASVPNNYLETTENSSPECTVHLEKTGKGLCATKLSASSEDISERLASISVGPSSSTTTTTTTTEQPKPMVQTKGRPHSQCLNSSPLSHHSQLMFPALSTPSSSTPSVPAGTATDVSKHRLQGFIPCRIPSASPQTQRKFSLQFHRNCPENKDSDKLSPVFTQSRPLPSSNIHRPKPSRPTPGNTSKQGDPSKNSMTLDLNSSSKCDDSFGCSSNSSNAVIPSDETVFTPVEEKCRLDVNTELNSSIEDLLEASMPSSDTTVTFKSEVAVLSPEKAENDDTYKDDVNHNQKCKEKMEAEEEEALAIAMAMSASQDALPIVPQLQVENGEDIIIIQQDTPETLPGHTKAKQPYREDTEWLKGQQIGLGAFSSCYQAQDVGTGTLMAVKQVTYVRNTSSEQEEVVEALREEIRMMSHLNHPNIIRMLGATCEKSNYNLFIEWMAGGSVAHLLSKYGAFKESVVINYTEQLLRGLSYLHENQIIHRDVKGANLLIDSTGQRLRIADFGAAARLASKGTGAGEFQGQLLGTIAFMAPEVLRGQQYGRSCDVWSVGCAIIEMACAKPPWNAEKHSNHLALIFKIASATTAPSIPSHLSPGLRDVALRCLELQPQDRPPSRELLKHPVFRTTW

percent inhibition (UniProt O15151; 500 uM): 41% | inhibition at 500 µM (UniProt O15151): 55% | inhibition at 100 µM (UniProt O43164; [1]): 1% | KB05_500 uM_percent_inhibition (UniProt O96028): 79% | inhibition at 500 µM (UniProt P36406; read-out: KB05_500 uM_percent_inhibition): 61% | inhibition at 100 µM (UniProt Q12899; [1]): 28% | inhibition at 100 µM (UniProt Q13233; read-out: percent inhibition): 31% | inhibition at 100 µM (UniProt Q13829; [2]): 7% | inhibition at 100 µM (UniProt Q86SE9; 100 uM, read-out: KB05_100 uM_percent_inhibition): 9% | KB05_500 uM_percent_inhibition (UniProt Q86SE9; 500 uM): 58% | inhibition at 500 µM (UniProt Q86SE9; [3]): 53% | inhibition at 100 µM (UniProt Q96EX2): 17% | percent_inhibition (UniProt Q96EX2; 500 uM): 29% | inhibition at 500 µM (UniProt Q96EX2; 500 uM): 16% | inhibition at 100 µM (UniProt Q96JY6; [1]): 33% | inhibition at 500 µM (UniProt Q96JY6; [3]): 36% | inhibition at 100 µM (UniProt Q9UJ41; [1]): 33%
SMILES: C=CC(=O)N(c1ccccc1)c1ccc(Br)cc1 [KB05]

SMILES: O=C(CCl)Nc1cc(C(F)(F)F)cc(C(F)(F)F)c1 [KBO3]
KB03_100 uM_percent_inhibition (UniProt O43164; 100 uM): 22% | percent_inhibition (UniProt O43791; 100 uM): 57% | KB03_500 uM_percent_inhibition (UniProt O96028): 78% | KB03_500 uM_percent_inhibition (UniProt P36406; 500 uM): 17% | KB03_100 uM_percent_inhibition (UniProt Q12899; 100 uM): 56% | percent inhibition (UniProt Q13233; 100 uM): 19% | KB03_100 uM_percent_inhibition (UniProt Q86SE9; 100 uM): 25% | percent inhibition (UniProt Q86UD3; 500 uM): 66% | KB03_100 uM_percent_inhibition (UniProt Q9UJ41; 100 uM): 20%

SMILES: COc1ccc2c(c1)CCCN2C(=O)CCl [KB02]
inhibition at 500 µM (UniProt O15151): 29% | inhibition at 100 µM (UniProt O43791; read-out: percent_inhibition): 49% | percent_inhibition (UniProt Q13829; 100 uM): 4% | inhibition at 100 µM (UniProt Q13829; [2]): 8% | percent_inhibition (UniProt Q13829; 500 uM): 9% | inhibition at 500 µM (UniProt Q13829; 500 uM, read-out: percent_inhibition): 15% | inhibition at 100 µM (UniProt Q86UD3; 100 uM, read-out: percent inhibition): 34% | inhibition at 500 µM (UniProt Q86UD3; 500 uM, read-out: percent inhibition): 77% | inhibition at 100 µM (UniProt Q96EX2): 44% | inhibition at 500 µM (UniProt Q96EX2; 500 uM): 42% | inhibition at 100 µM (UniProt Q96JY6; read-out: KB02_100 uM_percent_inhibition): 23%
